Measurements published in patent US20240130999A1, “Inhibition of SLC4A4 in the Treatment of Cancer” (VIB VZW, priority 2021, published 2024).

Key:
[1] = test system: KPC orthotopic tumors; test: DIDS treatment of mice bearing orthotopic KPC tumors (tumor growth, tumor weight); format: in vivo, mouse; settings: 15 mg/kg DIDS i.p. bi-daily for 10 days
Method: C57BL6/N were injected subcutaneously in the right flank with 1*10^6 Panc02 cells (pancreatic cancer cell line), 2*10^6 KP cells (lung cancer cell line), 0.8*10^6 KR158B cells (glioblastoma cell line), or 5*106 CMT-93 cells (colorectal cancer cell line) in 200 μl. Tumor growth was monitored by measuring the perpendicular diameters of tumors every other day and mice were sacrificed at a humane endpoint. FVB mice were injected orthotopically in the head of the pancreas with 10′000 KPC cells in 20 μl. Body weight was monitored and mice were sacrificed at a humane endpoint. Alternatively, FVB mice were injected subcutaneously in the right flank with 0,5*10^6 KPC cells in 200 μl. Tumor growth was monitored by measuring the perpendicular diameters of tumors every other day and mice were sacrificed at a humane endpoint. For immunotherapy treatment the mice were treated intraperitoneally (i.p.) with 10 mg/kg of either control IgG, anti-PD-1 (αPD-1), anti-PDL1 (αPDL1), or anti-CTLA-4 (αCTLA-4) antibodies (3×/week). For CD8 depletion mice were injected i.p. with an anti-CD8 antibody (10 mg/kg) 3 days before tumor inoculation and then 1 time per week. For in vivo slc4a4 inhibition, mice were treated with 15 mg/kg of 4,4′-Diisothiocyano-2,2′-stilbenedisulfonic acid (DIDS) i.p. bi-daily for a period of 10 days. […]

[2] = test system: KPC orthotopic tumors; test: FACS analysis of immune infiltrate in orthotopic KPC tumors of DIDS-treated mice; format: in vivo, mouse; settings: WT KPC orthotopic tumors, DIDS vs DMSO, flow cytometry
Method: C57BL6/N were injected subcutaneously in the right flank with 1*10^6 Panc02 cells (pancreatic cancer cell line), 2*10^6 KP cells (lung cancer cell line), 0.8*10^6 KR158B cells (glioblastoma cell line), or 5*106 CMT-93 cells (colorectal cancer cell line) in 200 μl. Tumor growth was monitored by measuring the perpendicular diameters of tumors every other day and mice were sacrificed at a humane endpoint. FVB mice were injected orthotopically in the head of the pancreas with 10′000 KPC cells in 20 μl. Body weight was monitored and mice were sacrificed at a humane endpoint. Alternatively, FVB mice were injected subcutaneously in the right flank with 0,5*10^6 KPC cells in 200 μl. Tumor growth was monitored by measuring the perpendicular diameters of tumors every other day and mice were sacrificed at a humane endpoint. For immunotherapy treatment the mice were treated intraperitoneally (i.p.) with 10 mg/kg of either control IgG, anti-PD-1 (αPD-1), anti-PDL1 (αPDL1), or anti-CTLA-4 (αCTLA-4) antibodies (3×/week). For CD8 depletion mice were injected i.p. with an anti-CD8 antibody (10 mg/kg) 3 days before tumor inoculation and then 1 time per week. For in vivo slc4a4 inhibition, mice were treated with 15 mg/kg of 4,4′-Diisothiocyano-2,2′-stilbenedisulfonic acid (DIDS) i.p. bi-daily for a period of 10 days. Antibodies: Rat serum IgG (14131) (Sigma-Aldrich); Ultra-LEAF™ Purified PD-1anti-mouse (CD279) RMP1-14 (BioLegend); InVivoMAb anti-mouse CTLA-4 (CD152) (BioCell); InVivoMAb anti-mouse CD8α (BioCell); InVivoMab anti-mouse PD-L1 (B7-H1) (BioCell).
Mice were sacrifice by cervical dislocation and the tumor were harvested in cold PBS. Tumors were minced in alpha MEM (Lonza) containing 0,085 mg/ml Collagenase V (Sigma), 0,125 mg/ml Collagenase D (Roche) and 0,1 mg/ml Dispase (Gibco), and incubated in the same solution for 30 minutes at 37° C. The digested tissues were filtered using a 70-μm pore sized strainer and cells were centrifuged 5 minutes at 300 xg. Red blood cell lysis was performed by using a home-made red blood cell lysis buffer (150 mM NH4Cl, 0.1 mM EDTA, 10 mM KHCO3, pH 7.4. Single cells were resuspended in FACS buffer (PBS containing 2% FBS and 2 mM EDTA) and incubated for 15 minutes with Mouse BD Fc Block purified anti-mouse CD16/CD32 mAb (BD-Pharmingen) and stained for 30 minutes at 4° C. with the following antibodies: Fixable viability dye (eFluor™ 450 or eFluor™ 506, 1:500),CD45 (PE, 1:200), TCRβ (FITC, 1:300), CD4 (PercPcy5.5, 1:400), CD8 (APC-cy7, 1:300), IFNγ (PE-cy7, 1:100), Foxp3 (APC, 1:100), TBet1 (BV421, 1:50)-from BD Biosciences. Cells were subsequently washed and resuspended in FACS buffer before FACS analysis by a FACS Canto II (BD Biosciences). Data was analyzed by Flowio (TreeStar).

O=S(=O)(O)c1cc(N=C=S)ccc1C=Cc1ccc(N=C=S)cc1S(=O)(=O)O [DIDS, 4,4′-diisothiocyano-2,2′-stilbenedisulfonic acid]
tumor reduction upon treatment ([1]; Slc4a4-KD orthotopic KPC tumors): no differences in tumor reduction
tumor growth ([1]; wild-type (control, NT) orthotopic KPC tumors): reduction in tumor growth
CD8+ T cells infiltration [2]: increase
CD8+/CD4+ T cell ratio [2]: increase
IFNγ expression of CD8+ T cells [2]: increase
number of CD4+ T cells [2]: no differences
number of Treg [2]: no differences
